Laboratory results reported in publication PMC8778670, “Identification of an Orally Bioavailable, Brain-Penetrant Compound with Selectivity for the Cannabinoid Type 2 Receptor” (Molecules, 2022).
“And” between values parts separate entries of the source, which are not always exact repeats. Identical values can stand only once. Like-named read-outs stand apart in the source and are kept apart here.

Assays:
[1] = PK evaluation in CD-1 mice (plasma, brain, kidney, liver; i.v. and oral); assay type: in vivo; details: for bioavailability: oral vs intravenous 5 mg/kg
Experimental: The primary stock solutions of 4k and phenacetin (internal standard, IS) were prepared in methanol at a concentration of 1.0 mg/mL. Working solutions of calibration standards and quality control (QC) samples were prepared by dilution with methanol and stored at −20 °C. A working stock of the IS solution (20 ng/mL) was prepared in methanol and stored at −20 °C.
Chromatography was performed on an Acquity^TM UPLC system (Waters Corp, Milford, MA, USA) with an autosampler temperature at 10 °C. Waters Acquity UPLC® HSS C18 column (3.0 × 50 mm, 1.8 µm particle size) was used for chromatographic separation with linear gradient elution consisting of (A) 90% acetonitrile and (B) 10% 0.2% formic acid in Milli-Q water as mobile phases. The flow rate was set at 0.30 mL/min, and the injection volume was 2 µL.
An Acquity Tandem Quadrupole Mass Detector (Xevo TQ-S; Waters Corp, Milford, MA, USA) in positive electrospray ionization mode was used for mass spectrometric detection. For collision-induced dissociation, argon was used as collision gas. The cone voltage and collision energy were set at 60 V and 34 V for 4k and 46 V and 26 V for the IS, respectively. Quantification was performed using the monitoring of multiple reaction monitoring (MRM) of following transitions: m/z 409.0/220.9 for 4k and m/z 180.0/92.7 for IS. Retention times of 4k and IS were 2.85 and 1.81 min, respectively.
A simple protein precipitation method was followed for extraction of 4k from mice plasma. To an aliquot of 50 μL of plasma or tissue (brain, liver, or kidney) samples, IS solution (5 μL of 20 ng/mL) was added and mixed for 15 s on a cyclomixer (Thermo Scientific, Indianapolis, IN, USA). After precipitation with 200 μL of acetonitrile, the mixture was vortexed for 2 min, followed by centrifugation for 10 min at 14,000 rpm on an accuSpin Micro 17R (Fisher Scientific, Suwanee, GA, USA) at 5 °C. An aliquot of ~150 μL of clear supernatant was transferred into vials and 2 μL was injected onto LC-MS/MS system for analysis.
Male CD-1 mice (N = 48) were obtained from Envigo (St. Louis, MO, USA) and maintained on a 12:12 h reversed dark/light cycle (lights off at 07:00 h) with ad libitum access to food and water. Following a ~4 h fast, animals were randomly assigned to one of two groups. Group I and II animals (n = 24/group, weight range 25–30 g) received compound 4k (5 mg/kg) orally (in the form of a solution, prepared using 10% absolute alcohol, 10% cremophor, and 80% Milli-Q water) or intravenously (i.v., using solution formulation comprising 10% absolute alcohol, 10% cremophor, and 80% normal saline), respectively. At 0.5, 1, 2, 4, 8, and 24 h post administration, animals were euthanized, blood was collected in K2. EDTA-containing polypropylene tubes and, tissues were collected (brain, liver, and kidney). Plasma was harvested by centrifuging the blood using Eppendorf 5430R Centrifuge (Germany) at 5000 rpm for 5 min and stored frozen at −80 °C until analysis.
Brain, liver, and kidney tissues were homogenized in separate 15 mL round-bottom screw-capped vials in phosphate buffered saline (5 volumes of each tissue mass) with a homogenizer (Polytron®) and stored at −80 °C until analysis. Plasma or tissue homogenates (50 μL) were spiked with IS and processed as mentioned in sample preparation section.
Plasma and tissue concentration and time data of compound 4k were analyzed by a non-compartmental method using WinNonlin Version 5.3 (Pharsight Corporation, Mountain View, CA, USA).

human CB2 receptors = biological target: T1, human CB2 receptors (Homo sapiens, UniProt P34972); experiment: Cannabinoid receptor [3H]CP-55,940 displacement binding assay, CB2
T1 construct: expressed in transfected cells; host or cells: CHO cells
T1 sequence (P34972 whole entry): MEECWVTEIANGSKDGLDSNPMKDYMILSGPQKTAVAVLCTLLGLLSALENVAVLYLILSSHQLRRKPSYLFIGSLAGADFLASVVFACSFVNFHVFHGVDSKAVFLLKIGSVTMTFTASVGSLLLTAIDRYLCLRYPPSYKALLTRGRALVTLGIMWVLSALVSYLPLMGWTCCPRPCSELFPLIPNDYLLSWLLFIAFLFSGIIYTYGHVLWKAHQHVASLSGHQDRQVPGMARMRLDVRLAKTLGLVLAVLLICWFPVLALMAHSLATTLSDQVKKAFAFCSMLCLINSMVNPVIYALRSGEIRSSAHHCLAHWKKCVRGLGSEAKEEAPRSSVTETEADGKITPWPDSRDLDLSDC
Experimental: (§1) The affinities of the compounds for CB1 and CB2 receptors were examined using displacement assays, as previously described. Briefly, cell membranes from CHO cells expressing human CB1 or human CB2 receptors were isolated using differential centrifugation. Test compounds reconstituted in DMSO and were incubated with the isolated membrane in binding buffer (50 mM Tris-HCl, 1 mM EDTA, 3 mM MgCl2, 5 mg/mL BSA, pH 7.4) along with 2.5 nM [^3H]CP-55,940. Total binding was assessed in the presence of equal concentration of DMSO, while non-specific binding was determined in the presence of 10 μM CP-55,940, and background binding was determined in wells lacking membrane. Following incubation at 30 °C for 60 min, the binding reactions were terminated by vacuum filtration through Whatman GF/C filters. The filters were then washed twice with ice-cold buffer (50 mM Tris-HCl, 1 mg/mL BSA). Liquid scintillation cocktail was added to each well and the total tritiated counts per minute were analyzed using a TopCount scintillation counter. Background counts were subtracted from all wells and the percent displacement from total binding was calculated.
(§2) The compounds were initially screened at 10 μM concentrations. If they produced at least ±30% displacement of the radioligand, then full competition curves were constructed. Ki values were calculated using GraphPad Prism (San Diego, CA, USA) and Kd values determined using a 1 site fit. All assays were run in technical and biological replicates so that the n = 5–6.

human CB1 receptors = biological target: T2, human CB1 receptors (Homo sapiens, UniProt P21554); experiment: Cannabinoid receptor [3H]CP-55,940 displacement binding assay, CB1; details: 1 h; 10 µM compound; CHO cell membranes, 2.5 nM radioligand; read-out: Displacement of [3H]CP-55,940 from CB1
T2 construct: expressed in transfected cells; host or cells: CHO cells
T2 sequence (P21554 whole entry): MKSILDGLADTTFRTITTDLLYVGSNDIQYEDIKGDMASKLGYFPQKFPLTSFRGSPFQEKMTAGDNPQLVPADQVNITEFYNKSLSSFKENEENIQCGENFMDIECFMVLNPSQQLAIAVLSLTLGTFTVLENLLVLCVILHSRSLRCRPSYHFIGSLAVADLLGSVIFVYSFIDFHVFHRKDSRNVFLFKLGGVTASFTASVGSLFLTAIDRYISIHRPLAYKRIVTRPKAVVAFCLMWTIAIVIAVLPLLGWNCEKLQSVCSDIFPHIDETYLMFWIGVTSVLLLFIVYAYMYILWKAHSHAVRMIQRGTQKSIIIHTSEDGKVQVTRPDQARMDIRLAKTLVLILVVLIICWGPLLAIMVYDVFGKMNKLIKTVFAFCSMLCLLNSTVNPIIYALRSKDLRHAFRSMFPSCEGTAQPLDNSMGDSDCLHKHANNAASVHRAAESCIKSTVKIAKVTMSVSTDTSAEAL
Experimental: as §1, §2

[2] = male, CD-1, mouse, intravenous 5 mg/kg, plasma
[3] = male, CD-1, mouse, oral 5 mg/kg, plasma

AUC0–∞ ([1]; intravenous 5 mg/kg, brain): 5685 ng·h/g | t1/2 ([1]; intravenous 5 mg/kg, brain, 5 mg/kg): 6.54 h | AUC0–∞ ([1]; intravenous 5 mg/kg, kidney): 13272 ng·h/g | AUC0–∞ ([1]; intravenous 5 mg/kg, liver): 19991 ng·h/g | t1/2 ([1]; intravenous 5 mg/kg, liver, 5 mg/kg): 9.26 h | clearance as share of hepatic blood flow in mice ([1]; intravenous 5 mg/kg, plasma): 26% | t1/2 ([1]; intravenous 5 mg/kg, plasma, 5 mg/kg): 6.91 h | Kp ([1]; male, CD-1, mouse, brain and plasma, intravenous 5 mg/kg, read-out: mean brain to plasma ratio): 3.67 | Kp ([1]; male, CD-1, mouse, brain and plasma, oral 5 mg/kg, read-out: mean brain to plasma ratio): 4.61 | half-life ([1]; male, CD-1, mouse, brain, iv, 5 mg/kg, intravenous 5 mg/kg, brain, read-out: t1/2 (converted)): 390 min | half-life ([1]; male, CD-1, mouse, brain, po, 5 mg/kg, oral 5 mg/kg, brain, read-out: t1/2 (converted)): 1370 min | Kp ([1]; male, CD-1, mouse, kidney and plasma, intravenous 5 mg/kg, read-out: mean kidney to plasma ratio): 14.5 | Kp ([1]; male, CD-1, mouse, kidney and plasma, oral 5 mg/kg, read-out: mean kidney to plasma ratio): 7.25 | half-life ([1]; male, CD-1, mouse, kidney, iv, 5 mg/kg, intravenous 5 mg/kg, kidney, read-out: t1/2 (converted)): 612 min | half-life ([1]; male, CD-1, mouse, kidney, po, 5 mg/kg, oral 5 mg/kg, kidney, read-out: t1/2 (converted)): 1000 min | Kp ([1]; male, CD-1, mouse, liver and plasma, intravenous 5 mg/kg, read-out: mean liver to plasma ratio): 11.5 | Kp ([1]; male, CD-1, mouse, liver and plasma, oral 5 mg/kg, read-out: mean liver to plasma ratio): 9.89 | half-life ([1]; male, CD-1, mouse, liver, iv, 5 mg/kg, intravenous 5 mg/kg, liver, read-out: t1/2 (converted)): 558 min | half-life ([1]; male, CD-1, mouse, liver, kidney, other: oral or intravenous, 5 mg/kg, oral or intravenous route, liver and kidneys, read-out: elimination half-lives in the liver and kidneys): 558 to 1000 min | half-life ([1]; male, CD-1, mouse, liver, po, 5 mg/kg, oral 5 mg/kg, liver, read-out: t1/2 (converted)): 780 min | half-life ([1]; male, CD-1, mouse, plasma, iv, 5 mg/kg, intravenous 5 mg/kg, plasma, read-out: t1/2 (converted)): 414 min | half-life ([1]; male, CD-1, mouse, plasma, po, 5 mg/kg, oral 5 mg/kg, plasma, read-out: t1/2 (converted)): 984 min | Cmax ([1]; male, CD-1, mouse, intravenous 5 mg/kg, brain, read-out: Cmax or C0): 2260 ng/g | Vd ([1]; male, CD-1, mouse, intravenous 5 mg/kg, brain, read-out: volume of distribution): 8.82 ± 2.43 L/kg | Cmax ([1]; male, CD-1, mouse, intravenous 5 mg/kg, kidney, read-out: Cmax or C0): 4720 ng/g | Vd ([1]; male, CD-1, mouse, intravenous 5 mg/kg, kidney, read-out: volume of distribution): 5.63 ± 0.37 L/kg | Cmax ([1]; male, CD-1, mouse, intravenous 5 mg/kg, liver, read-out: Cmax or C0): 13500 ng/g | Vd ([1]; male, CD-1, mouse, intravenous 5 mg/kg, liver, read-out: volume of distribution): 3.38 ± 0.18 L/kg | AUC(0-inf) [1, 2]: 4020 ng·h/mL | clearance [1, 2]: 23.5 mL/min/kg | C0 ([1]; male, CD-1, mouse, intravenous 5 mg/kg, plasma, read-out: Cmax or C0): 4340 ng/mL | Vd ([1]; male, CD-1, mouse, intravenous 5 mg/kg, plasma, read-out: Vd): 14.3 L/kg | Tmax ([1]; male, CD-1, mouse, oral 5 mg/kg, brain): 75 min | Cmax ([1]; male, CD-1, mouse, oral 5 mg/kg, brain, read-out: Cmax): 602 ng/g | Tmax ([1]; male, CD-1, mouse, oral 5 mg/kg, kidney): 45 min | Cmax ([1]; male, CD-1, mouse, oral 5 mg/kg, kidney, read-out: Cmax): 795 ng/g | Tmax ([1]; male, CD-1, mouse, oral 5 mg/kg, liver): 45 min | Cmax ([1]; male, CD-1, mouse, oral 5 mg/kg, liver, read-out: Cmax): 1890 ng/g | AUC(0-inf) [1, 3]: 739 ng·h/mL | Tmax [1, 3]: 52.8 min | Cmax ([1]; male, CD-1, mouse, oral 5 mg/kg, plasma, read-out: Cmax): 198 ng/mL | bioavailability ([1]; male, CD-1, mouse, brain, read-out: F (apparent oral bioavailability)): 42.5 ± 5.75% | bioavailability ([1]; male, CD-1, mouse, plasma, read-out: F (oral bioavailability)): 18% | AUC0–∞ ([1]; oral 5 mg/kg, brain, 5 mg/kg): 3069 ± 64 ng·h/g and 3069 ng·h/g | AUC0–∞ ([1]; oral 5 mg/kg, kidney, 5 mg/kg): 5223 ± 44.75 ng·h/g and 5223 ng·h/g | AUC0–∞ ([1]; oral 5 mg/kg, liver, 5 mg/kg): 6423 ± 571 ng·h/g and 6423 ng·h/g | inhibition at 10 µM (human CB2 receptors; 1 h, 10 µM compound, CHO cell membranes, 2.5 nM radioligand, read-out: Displacement of [3H]CP-55,940 from CB2): 84.6% | Ki (human CB2 receptors; CB2, full competition curves vs [3H]CP-55,940): 146 nM | inhibition at 10 µM (human CB1 receptors): 41.3%
Compound: O=C1c2ccc(Cl)cc2N/C(=N/N=C/c2cc3ccccc3s2)[C@@H]2CCCN12 [Compound 4k]
